Source: patent publication US20170190671A1, “BIS(ARYL)CATECHOL DERIVATIVES AS HERBICIDES” (E I DU PONT DE NEMOURS AND COMPANY, priority 2014, published 2017)

Tests used:
[1] = test system: barnyardgrass (Echinochloa crus-galli); experiment: Test B flooded paddy; format: in vivo; conditions: Echinochloa crus-galli, 336 h; 250 g ai/ha, Flood, 13 to 15 days, scale 0 (no effect) to 100 (complete control); read-out: Plant response rating, Barnyardgrass
From the text: (§1) At time of treatment, test pots were flooded to 3 cm above the soil surface, treated by application of test compounds directly to the paddy water, and then maintained at that water depth for the duration of the test. Treated plants and controls were maintained in a greenhouse for 13 to 15 days, after which time all species were compared to controls and visually evaluated. […] A dash (-) response means no test result.

[2] = test system: ducksalad (Heteranthera limosa); experiment: Test B flooded paddy; format: in vivo; conditions: Heteranthera limosa, 336 h; 250 g ai/ha, Flood, 13 to 15 days, scale 0 (no effect) to 100 (complete control); read-out: Plant response rating, Ducksalad
From the text: as §1

rice (Oryza sativa) = experiment: Test B flooded paddy; format: in vivo; conditions: Oryza sativa, 336 h; 250 g ai/ha, Flood, 13 to 15 days, scale 0 (no effect) to 100 (complete control); read-out: Plant response rating, Rice
From the text: as §1

[3] = test system: sedge, umbrella (small-flower umbrella sedge, Cyperus difformis); experiment: Test B flooded paddy; format: in vivo; conditions: Cyperus difformis, 336 h; 250 g ai/ha, Flood, 13 to 15 days, scale 0 (no effect) to 100 (complete control); read-out: Plant response rating, Sedge, Umbrella
From the text: as §1

[4] = test system: barnyardgrass (Echinochloa crus-galli); experiment: Test A preemergence; format: in vivo; conditions: Echinochloa crus-galli, pre-emergence, 240 h; for pest or weed control at 125 g/ha: 125 g ai/ha
How it was run: (§2)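 Scoring: eye-based comparison with untreated controls, 0 for no effect through 100 for complete control, at about day 10. Treatments: directed soil spray preemergence; foliar spray postemergence on 2–10 cm plants at the one- to two-leaf stage. Medium: loam soil with sand.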

corn (Zea mays) [5] = experiment: Test A preemergence; format: in vivo; conditions: 0 to 100 scale
How it was run: as §2

[6] = test system: giant foxtail (Setaria faberii); experiment: Test A preemergence; format: in vivo; conditions: Setaria faberi, pre-emergence, 240 h; for pest or weed control at 125 g/ha: 125 g ai/ha
How it was run: as §2

[7] = test system: large (Lg) crabgrass (Digitaria sanguinalis); experiment: Test A preemergence; format: in vivo; conditions: 0 to 100 scale
How it was run: as §2

[8] = test system: morningglory (Ipomoea spp.); experiment: Test A preemergence; format: in vivo; conditions: 0 to 100 scale
How it was run: as §2

[9] = test system: pigweed (Amaranthus retroflexus); experiment: Test A preemergence; format: in vivo; conditions: Amaranthus retroflexus, pre-emergence, 240 h; for pest or weed control at 125 g/ha: 125 g ai/ha
How it was run: as §2

[10] = test system: velvetleaf (Abutilon theophrasti); experiment: Test A preemergence; format: in vivo; conditions: 0 to 100 scale
How it was run: as §2

[11] = test system: wheat (Triticum aestivum); experiment: Test A preemergence; format: in vivo; conditions: 0 to 100 scale
How it was run: as §2

[12] = test system: barnyardgrass (Echinochloa crus-galli); experiment: Test A postemergence; format: in vivo; conditions: Echinochloa crus-galli, post-emergence, 240 h, 0 to 100 scale, read-out: Plant response rating, Barnyardgrass; for pest or weed control at 125 g/ha: 125 g ai/ha
How it was run: as §2

corn (Zea mays) [13] = experiment: Test A postemergence; format: in vivo; conditions: Zea mays, post-emergence, 240 h, 0 to 100 scale; for Corn plant response rating (crop injury, 0 = no effect, 100 = complete kill) at 125 g/ha: 125 g ai/ha
How it was run: as §2

[14] = test system: giant foxtail (Setaria faberii); experiment: Test A postemergence; format: in vivo; conditions: Setaria faberi, post-emergence, 240 h, 0 to 100 scale, read-out: Plant response rating, Foxtail, Giant; for pest or weed control at 125 g/ha: 125 g ai/ha
How it was run: as §2

[15] = test system: large (Lg) crabgrass (Digitaria sanguinalis); experiment: Test A postemergence; format: in vivo; conditions: 0 to 100 scale
How it was run: as §2

[16] = test system: morningglory (Ipomoea spp.); experiment: Test A postemergence; format: in vivo; conditions: 0 to 100 scale
How it was run: as §2

[17] = test system: pigweed (Amaranthus retroflexus); experiment: Test A postemergence; format: in vivo; conditions: Amaranthus retroflexus, post-emergence, 240 h, 0 to 100 scale, read-out: Plant response rating, Pigweed; for pest or weed control at 125 g/ha: 125 g ai/ha
How it was run: as §2

[18] = test system: velvetleaf (Abutilon theophrasti); experiment: Test A postemergence; format: in vivo; conditions: 0 to 100 scale
How it was run: as §2

[19] = test system: wheat (Triticum aestivum); experiment: Test A postemergence; format: in vivo; conditions: Triticum aestivum, post-emergence, 240 h, 0 to 100 scale, read-out: Plant response rating, Wheat; for plant injury at 125 g/ha: 125 g ai/ha
How it was run: as §2

[20] = test system: Italian ryegrass (Lolium multiflorum); experiment: Test A preemergence; format: in vivo; conditions: Lolium multiflorum, pre-emergence, 240 h, 0 to 100 scale (0 no effect, 100 complete control), read-out: Ryegrass, Italian plant response rating
How it was run: as §2

kochia (Kochia scoparia) [21] = experiment: Test A preemergence; format: in vivo; conditions: Bassia scoparia, pre-emergence, 240 h, 0 to 100 scale (0 no effect, 100 complete control), read-out: Kochia plant response rating
How it was run: as §2

[22] = test system: ragweed (common ragweed, Ambrosia elatior); experiment: Test A preemergence; format: in vivo; conditions: Ambrosia artemisiifolia, pre-emergence, 240 h, 0 to 100 scale (0 no effect, 100 complete control), read-out: Ragweed plant response rating
How it was run: as §2

[23] = test system: Italian ryegrass (Lolium multiflorum); experiment: Test A postemergence; format: in vivo; conditions: Lolium multiflorum, post-emergence, 240 h, 0 to 100 scale, read-out: Plant response rating, Ryegrass, Italian
How it was run: as §2

[24] = test system: blackgrass (Alopecurus myosuroides); experiment: Test A postemergence; format: in vivo; conditions: Alopecurus myosuroides, post-emergence, 240 h, 0 to 100 scale, read-out: Plant response rating, Blackgrass
How it was run: as §2

[25] = test system: galium (catchweed bedstraw, Galium aparine); experiment: Test A postemergence; format: in vivo; conditions: Galium, post-emergence, 240 h, 0 to 100 scale, read-out: Plant response rating, Galium
How it was run: as §2

kochia (Kochia scoparia) [26] = experiment: Test A postemergence; format: in vivo; conditions: Bassia scoparia, post-emergence, 240 h, 0 to 100 scale, read-out: Plant response rating, Kochia
How it was run: as §2

[27] = test system: ragweed (common ragweed, Ambrosia elatior); experiment: Test A postemergence; format: in vivo; conditions: Ambrosia artemisiifolia, post-emergence, 240 h, 0 to 100 scale, read-out: Plant response rating, Ragweed
How it was run: as §2

[28] = 0 to 100 scale, read-out: Plant response rating, Barnyardgrass

Structure (SMILES): N#Cc1cccc(Oc2ncc(F)cn2)c1Oc1ncc(F)cn1 [Compound 2, 2,3-bis[(5-fluoro-2-pyrimidinyl)oxy]benzonitrile]
- pest or weed control at 250 g/ha [1]: 20%
- pest or weed control at 250 g/ha [2]: 70%
- plant injury at 250 g/ha (rice (Oryza sativa)): 15%
- pest or weed control at 250 g/ha [3]: 60%
- pest or weed control at 125 g/ha [4, 28]: 20%
- pest or weed control at 500 g/ha ([4]; 500 g ai/ha, 0 to 100 scale, read-out: Plant response rating, Barnyardgrass): 100%
- Plant response rating, Corn (corn (Zea mays) [5]; 125 g ai/ha): 20
- Plant response rating, Corn (corn (Zea mays) [5]; 500 g ai/ha): 60
- pest or weed control at 125 g/ha ([6]; 0 to 100 scale, read-out: Plant response rating, Foxtail, Giant): 100%
- pest or weed control at 500 g/ha ([6]; 500 g ai/ha, 0 to 100 scale, read-out: Plant response rating, Foxtail, Giant): 100%
- Plant response rating, Crabgrass, Large ([7]; 125 g ai/ha): 100
- Plant response rating, Crabgrass, Large ([7]; 500 g ai/ha): 100
- Plant response rating, Morningglory ([8]; 125 g ai/ha): 50
- Plant response rating, Morningglory ([8]; 500 g ai/ha): 100
- pest or weed control at 125 g/ha ([9]; 0 to 100 scale, read-out: Plant response rating, Pigweed): 100%
- pest or weed control at 500 g/ha ([9]; 500 g ai/ha, 0 to 100 scale, read-out: Plant response rating, Pigweed): 100%
- Plant response rating, Velvetleaf ([10]; 125 g ai/ha): 40
- Plant response rating, Velvetleaf ([10]; 500 g ai/ha): 100
- Plant response rating, Wheat ([11]; 125 g ai/ha): 20
- Plant response rating, Wheat ([11]; 500 g ai/ha): 30
- pest or weed control at 125 g/ha [12]: 20%
- pest or weed control at 500 g/ha ([12]; 500 g ai/ha): 90%
- Corn plant response rating (crop injury, 0 = no effect, 100 = complete kill) at 125 g/ha (corn (Zea mays) [13]): 0%
- Corn plant response rating (crop injury, 0 = no effect, 100 = complete kill) at 500 g/ha (corn (Zea mays) [13]; 500 g ai/ha): 90%
- pest or weed control at 125 g/ha [14]: 40%
- pest or weed control at 500 g/ha ([14]; 500 g ai/ha): 100%
- Plant response rating, Crabgrass, Large ([15]; 125 g ai/ha): 30
- Plant response rating, Crabgrass, Large ([15]; 500 g ai/ha): 100
- Plant response rating, Morningglory ([16]; 125 g ai/ha): 60
- Plant response rating, Morningglory ([16]; 500 g ai/ha): 90
- pest or weed control at 125 g/ha [17]: 90%
- pest or weed control at 500 g/ha ([17]; 500 g ai/ha): 100%
- Plant response rating, Velvetleaf ([18]; 125 g ai/ha): 70
- Plant response rating, Velvetleaf ([18]; 500 g ai/ha): 90
- plant injury at 125 g/ha [19]: 20%
- plant injury at 500 g/ha ([19]; 500 g ai/ha): 90%

Structure (SMILES): Fc1cnc(Oc2c(F)ccc(F)c2Oc2ncc(Cl)cn2)nc1 [Compound 28]
- pest or weed control at 31 g/ha ([20]; 31 g ai/ha): 0%
- pest or weed control at 125 g/ha ([20]; 125 g ai/ha): 0%
- pest or weed control at 31 g/ha ([4]; 31 g ai/ha, 0 to 100 scale (0 no effect, 100 complete control), read-out: Barnyardgrass plant response rating): 0%
- pest or weed control at 125 g/ha [4, 28]: 10%
- pest or weed control at 31 g/ha ([6]; 31 g ai/ha, 0 to 100 scale (0 no effect, 100 complete control), read-out: Foxtail, Giant plant response rating): 10%
- pest or weed control at 125 g/ha ([6]; 0 to 100 scale (0 no effect, 100 complete control), read-out: Foxtail, Giant plant response rating): 40%
- pest or weed control at 31 g/ha (kochia (Kochia scoparia) [21]; 31 g ai/ha): 0%
- pest or weed control at 125 g/ha (kochia (Kochia scoparia) [21]; 125 g ai/ha): 20%
- pest or weed control at 31 g/ha ([9]; 31 g ai/ha, 0 to 100 scale (0 no effect, 100 complete control), read-out: Pigweed plant response rating): 50%
- pest or weed control at 125 g/ha ([9]; 0 to 100 scale (0 no effect, 100 complete control), read-out: Pigweed plant response rating): 80%
- pest or weed control at 31 g/ha ([22]; 31 g ai/ha): 0%
- pest or weed control at 125 g/ha ([22]; 125 g ai/ha): 0%
- pest or weed control at 31 g/ha ([23]; 31 g ai/ha): 0%
- pest or weed control at 125 g/ha ([23]; 125 g ai/ha): 0%
- pest or weed control at 31 g/ha ([12]; 31 g ai/ha): 0%
- pest or weed control at 125 g/ha [12]: 0%
- pest or weed control at 31 g/ha ([24]; 31 g ai/ha): 0%
- pest or weed control at 125 g/ha ([24]; 125 g ai/ha): 20%
- Corn plant response rating (crop injury, 0 = no effect, 100 = complete kill) at 31 g/ha (corn (Zea mays) [13]; 31 g ai/ha): 0%
- Corn plant response rating (crop injury, 0 = no effect, 100 = complete kill) at 125 g/ha (corn (Zea mays) [13]): 0%
- pest or weed control at 31 g/ha ([25]; 31 g ai/ha): 20%
- pest or weed control at 125 g/ha ([25]; 125 g ai/ha): 70%
- pest or weed control at 31 g/ha ([14]; 31 g ai/ha): 0%
- pest or weed control at 125 g/ha [14]: 20%
- pest or weed control at 31 g/ha (kochia (Kochia scoparia) [26]; 31 g ai/ha): 30%
- pest or weed control at 125 g/ha (kochia (Kochia scoparia) [26]; 125 g ai/ha): 70%
- pest or weed control at 31 g/ha ([17]; 31 g ai/ha): 50%
- pest or weed control at 125 g/ha [17]: 60%
- pest or weed control at 31 g/ha ([27]; 31 g ai/ha): 10%
- pest or weed control at 125 g/ha ([27]; 125 g ai/ha): 30%
- plant injury at 31 g/ha ([19]; 31 g ai/ha): 0%
- plant injury at 125 g/ha [19]: 0%
- melting point: 94 to 98 °C
